From ChEMBL document CHEMBL1909294, “Translating clinical findings into knowledge in drug safety evaluation--drug induced liver injury prediction system (DILIps)” (PLoS Comput Biol, 2011)

Tests used:
Hepatotoxicity [1] = tested on: Hepatotoxicity;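 as to HepSE Combined Scores: combined hepatic side effect score as listed in the training data of the Drug Induced Liver Injury Prediction System (DILIps)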;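 as to HepSE cholecystitis: Cholecystitis-related hepatic side effect score drawn from the DILIps (drug-induced liver injury prediction) training data set; call rule not given here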;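 as to HepSE cirrhosis: cirrhosis hepatic side effect score taken from the DILIps (drug-induced liver injury prediction) training set; call rule not given here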; as to HepSE hepatic failure: call rule not given here;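 as to HepSE hepatomegaly: hepatic side effect score for hepatomegaly, taken from the training set of the DILIps drug-induced liver injury prediction system; call rule not given here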;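 as to HepSE jaundice: Jaundice-related hepatic side-effect score drawn from the training data of the DILIps (drug-induced liver injury prediction system); call rule not given here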;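 as to HepSE liver fatty: hepatic side effect score for fatty liver, taken from the DILIps training set for predicting drug-induced liver injury; call rule not given here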
Hepatotoxicity [2] = tested on: Hepatotoxicity; remark: listed apart in the source;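 as to HepSE Combined Scores: combined hepatic side effect score as listed in the training data of the Drug Induced Liver Injury Prediction System (DILIps)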;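 as to HepSE cholecystitis: Cholecystitis-related hepatic side effect score drawn from the DILIps (drug-induced liver injury prediction) training data set; call rule not given here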;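 as to HepSE cirrhosis: cirrhosis hepatic side effect score taken from the DILIps (drug-induced liver injury prediction) training set; call rule not given here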; as to HepSE hepatic failure: call rule not given here;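 as to HepSE hepatomegaly: hepatic side effect score for hepatomegaly, taken from the training set of the DILIps drug-induced liver injury prediction system; call rule not given here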;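 as to HepSE jaundice: Jaundice-related hepatic side-effect score drawn from the training data of the DILIps (drug-induced liver injury prediction system); call rule not given here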;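 as to HepSE liver fatty: hepatic side effect score for fatty liver, taken from the DILIps training set for predicting drug-induced liver injury; call rule not given here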
Hepatotoxicity [3] = tested on: Hepatotoxicity; remark: listed apart in the source;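 as to HepSE Combined Scores: combined hepatic side effect score as listed in the training data of the Drug Induced Liver Injury Prediction System (DILIps)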;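 as to HepSE cholecystitis: Cholecystitis-related hepatic side effect score drawn from the DILIps (drug-induced liver injury prediction) training data set; call rule not given here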;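 as to HepSE cirrhosis: cirrhosis hepatic side effect score taken from the DILIps (drug-induced liver injury prediction) training set; call rule not given here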; as to HepSE hepatic failure: call rule not given here;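 as to HepSE hepatomegaly: hepatic side effect score for hepatomegaly, taken from the training set of the DILIps drug-induced liver injury prediction system; call rule not given here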;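 as to HepSE liver fatty: hepatic side effect score for fatty liver, taken from the DILIps training set for predicting drug-induced liver injury; call rule not given here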
Hepatotoxicity [4] = tested on: Hepatotoxicity; remark: listed apart in the source;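 as to HepSE Combined Scores: combined hepatic side effect score as listed in the training data of the Drug Induced Liver Injury Prediction System (DILIps)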;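 as to HepSE cholecystitis: Cholecystitis-related hepatic side effect score drawn from the DILIps (drug-induced liver injury prediction) training data set; call rule not given here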;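 as to HepSE cirrhosis: cirrhosis hepatic side effect score taken from the DILIps (drug-induced liver injury prediction) training set; call rule not given here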; as to HepSE hepatic failure: call rule not given here;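 as to HepSE hepatomegaly: hepatic side effect score for hepatomegaly, taken from the training set of the DILIps drug-induced liver injury prediction system; call rule not given here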;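 as to HepSE liver fatty: hepatic side effect score for fatty liver, taken from the DILIps training set for predicting drug-induced liver injury; call rule not given here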
Hepatotoxicity [5] = tested on: Hepatotoxicity; remark: listed apart in the source; as to HepSE hepatic failure: call rule not given here
Hepatotoxicity [6] = tested on: Hepatotoxicity; remark: listed apart in the source; as to HepSE hepatic failure: call rule not given here
Hepatotoxicity [7] = tested on: Hepatotoxicity; remark: listed apart in the source
Hepatotoxicity [8] = tested on: Hepatotoxicity; remark: listed apart in the source
Hepatotoxicity [9] = tested on: Hepatotoxicity; remark: listed apart in the source
Hepatotoxicity [10] = tested on: Hepatotoxicity; remark: listed apart in the source
Hepatotoxicity [11] = tested on: Hepatotoxicity; remark: listed apart in the source
Hepatotoxicity [12] = tested on: Hepatotoxicity; remark: listed apart in the source

Compound	HepSE_hepatic failure (Hepatotoxicity [1]; Liver)	HepSE_hepatomegaly (Hepatotoxicity [2]; Liver)	HepSE_Combined Scores (Hepatotoxicity [3]; Liver)	HepSE_cirrhosis (Hepatotoxicity [4]; Liver)	HepSE_cholecystitis (Hepatotoxicity [5]; Liver)	HepSE_liver fatty (Hepatotoxicity [6]; Liver)	HepSE_jaundice (Hepatotoxicity [7]; Liver)	HepSE_hepatitis (Hepatotoxicity [8]; Liver)	HepSE_cholelithiasis (Hepatotoxicity [9]; Liver)	HepSE_bilirubinemia (Hepatotoxicity [10]; Liver)	HepSE_liver disease (Hepatotoxicity [11]; Liver)	HepSE_hepatic necrosis (Hepatotoxicity [12]; Liver)	further results
CC(C)(C(=O)O)c1ccc(C(O)CCCN2CCC(C(O)(c3ccccc3)c3ccccc3)CC2)cc1 (stereo not given) [FEXOFENADINE]	0	0	0	0	0	0	0	0	0	0	0	0	–
CN1[C@@H]2C[C@@H](OC(=O)[C@H](CO)c3ccccc3)C[C@H]1[C@@H]1O[C@@H]12 [SCOPOLAMINE]	0	0	0	0	0	0	0	0	0	0	0	0	–
O=C(O)COCCN1CCN(C(c2ccccc2)c2ccc(Cl)cc2)CC1 (stereo not given) [CETIRIZINE]	0	0	2	0	0	0	1	1	0	0	0	0	–
CCOC(=O)N1CCC(=C2c3ccc(Cl)cc3CCc3cccnc32)CC1 [LORATADINE]	0	0	0	0	0	0	0	0	0	0	0	0	–
CC(C)c1c(C(=O)Nc2ccccc2)c(-c2ccccc2)c(-c2ccc(F)cc2)n1CC[C@@H](O)C[C@@H](O)CC(=O)O [ATORVASTATIN]	0	0	3	0	0	0	1	1	0	0	0	0	–
Nc1ccc(S(N)(=O)=O)cc1 [SULFANILAMIDE]	0	0	0	0	0	0	0	0	0	0	0	0	–
Clc1ccc2c(c1)CCc1cccnc1C2=C1CCNCC1 [DESLORATADINE]	–	–	–	–	–	–	–	–	–	–	–	–	HepSE_hepatic failure (Hepatotoxicity [1]): 0; HepSE_hepatomegaly (Hepatotoxicity [2]): 0; HepSE_Combined Scores (Hepatotoxicity [3]): 1; HepSE_cirrhosis (Hepatotoxicity [4]): 0; HepSE_cholecystitis (Hepatotoxicity [5]): 0; HepSE_liver fatty (Hepatotoxicity [6]): 0; HepSE_jaundice (Hepatotoxicity [7]): 0; HepSE_hepatitis (Hepatotoxicity [8]): 1; HepSE_cholelithiasis (Hepatotoxicity [9]): 0; HepSE_bilirubinemia (Hepatotoxicity [10]): 0; HepSE_liver disease (Hepatotoxicity [11]): 0; HepSE_hepatic necrosis (Hepatotoxicity [12]): 0
CCCCc1oc2ccccc2c1C(=O)c1cc(I)c(OCCN(CC)CC)c(I)c1 [AMIODARONE]	0	1	5	1	0	0	0	1	0	0	1	0	–
Cc1ccc(NC(=O)c2ccc(CN3CCN(C)CC3)cc2)cc1Nc1nccc(-c2cccnc2)n1 [IMATINIB]	–	–	–	–	–	–	–	–	–	–	–	–	HepSE_hepatic failure (Hepatotoxicity [1]): 1; HepSE_hepatomegaly (Hepatotoxicity [2]): 0; HepSE_Combined Scores (Hepatotoxicity [3]): 4; HepSE_cirrhosis (Hepatotoxicity [4]): 0; HepSE_cholecystitis (Hepatotoxicity [5]): 0; HepSE_liver fatty (Hepatotoxicity [6]): 0; HepSE_jaundice (Hepatotoxicity [7]): 1; HepSE_hepatitis (Hepatotoxicity [8]): 1; HepSE_cholelithiasis (Hepatotoxicity [9]): 0; HepSE_bilirubinemia (Hepatotoxicity [10]): 0; HepSE_liver disease (Hepatotoxicity [11]): 0; HepSE_hepatic necrosis (Hepatotoxicity [12]): 1
O=C(O)c1cn(C2CC2)c2cc(N3CCNCC3)c(F)cc2c1=O [CIPROFLOXACIN]	1	1	7	0	0	0	1	1	0	1	0	1	–
NCCCC(O)(P(=O)(O)O)P(=O)(O)O [ALENDRONIC ACID]	0	0	0	0	0	0	0	0	0	0	0	0	–
CN1C(=O)CN=C(c2ccccc2)c2cc(Cl)ccc21 [DIAZEPAM]	0	0	1	0	0	0	1	0	0	0	0	0	–
COc1ccc(CCN(C)CCCC(C#N)(c2ccc(OC)c(OC)c2)C(C)C)cc1OC (stereo not given)	–	–	–	–	–	–	–	–	–	–	–	–	HepSE_hepatic failure (Hepatotoxicity [1]): 0; HepSE_hepatomegaly (Hepatotoxicity [2]): 0; HepSE_Combined Scores (Hepatotoxicity [3]): 2; HepSE_cirrhosis (Hepatotoxicity [4]): 0; HepSE_cholecystitis (Hepatotoxicity [5]): 0; HepSE_liver fatty (Hepatotoxicity [6]): 0; HepSE_jaundice (Hepatotoxicity [7]): 1; HepSE_hepatitis (Hepatotoxicity [8]): 1; HepSE_cholelithiasis (Hepatotoxicity [9]): 0; HepSE_bilirubinemia (Hepatotoxicity [10]): 0; HepSE_liver disease (Hepatotoxicity [11]): 0; HepSE_hepatic necrosis (Hepatotoxicity [12]): 0
CN1CC[C@]23c4c5ccc(O)c4O[C@H]2[C@@H](O)C=C[C@H]3[C@H]1C5 [MORPHINE]	0	0	1	0	0	0	0	0	0	0	0	0	–
CCN(CC)CC(=O)Nc1c(C)cccc1C [LIDOCAINE]	0	0	0	0	0	0	0	0	0	0	0	0	–
CN(C)CCOC(c1ccccc1)c1ccccc1 [DIPHENHYDRAMINE]	0	0	0	0	0	0	0	0	0	0	0	0	–
CCCNCC(O)COc1ccccc1C(=O)CCc1ccccc1 (stereo not given) [PROPAFENONE]	0	1	4	0	0	0	1	1	0	0	0	0	–
CC1=C(C(=O)O)N2C(=O)[C@@H](NC(=O)[C@H](N)c3ccccc3)[C@H]2SC1 [CEPHALEXIN ANHYDROUS]	0	0	2	0	0	0	1	1	0	0	0	0	–
COc1ccc2cc([C@H](C)C(=O)O)ccc2c1 [NAPROXEN]	1	0	6	0	1	0	1	1	1	0	0	0	–
CC(C)c1nc(CN(C)C(=O)N[C@H](C(=O)N[C@@H](Cc2ccccc2)C[C@H](O)[C@H](Cc2ccccc2)NC(=O)OCc2cncs2)C(C)C)cs1 [RITONAVIR]	–	–	–	–	–	–	–	–	–	–	–	–	HepSE_hepatomegaly (Hepatotoxicity [2]): 1; HepSE_Combined Scores (Hepatotoxicity [3]): 3; HepSE_cirrhosis (Hepatotoxicity [4]): 0; HepSE_cholecystitis (Hepatotoxicity [5]): 0; HepSE_liver fatty (Hepatotoxicity [6]): 0; HepSE_jaundice (Hepatotoxicity [7]): 1; HepSE_hepatitis (Hepatotoxicity [8]): 1; HepSE_cholelithiasis (Hepatotoxicity [9]): 0; HepSE_liver disease (Hepatotoxicity [11]): 0; HepSE_hepatic necrosis (Hepatotoxicity [12]): 0
CN1[C@@H]2CC[C@H]1C[C@@H](OC(=O)C(CO)c1ccccc1)C2 (stereo not given in full) [ATROPINE]	0	0	0	0	0	0	0	0	0	0	0	0	–
